Assay results taken from the supplement of paper PMC10307832.

Tests used:
Assay in all cases: relative viability (nuclei count vs DMSO), 5 days (fraction); higher = more cells survive
BEN = test system: BEN
Procedure, shortened: (§1)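 Dosing by pin tool came one day after lung cancer cell lines were seeded in 1536-well plates, using either one drug or a fixed anchor-drug dose plus five library-drug doses (not always all listed) in √10 steps. After 5 days, nuclei were counted on 4× images. Relative viability is treated-well nuclei count divided by vehicle-well nuclei count, and values are medians of duplicate plates.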

LK-2 = test system: LK-2
Procedure, shortened: as §1

SW 1573 = test system: SW 1573
Procedure, shortened: as §1

ChaGo-K-1 = test system: ChaGo-K-1
Procedure, shortened: as §1

HCC-78 = test system: HCC-78
Procedure, shortened: as §1

EKVX = test system: EKVX
Procedure, shortened: as §1

NCI-H2087 = test system: NCI-H2087
Procedure, shortened: as §1

HCC-827 = test system: HCC-827
Procedure, shortened: as §1

EPLC-272H = test system: EPLC-272H
Procedure, shortened: as §1

NCI-H358 = test system: NCI-H358
Procedure, shortened: as §1

LU99A = test system: LU99A
Procedure, shortened: as §1

NCI-H727 = test system: NCI-H727
Procedure, shortened: as §1

NCI-H1944 = test system: NCI-H1944
Procedure, shortened: as §1

LOU-NH91 = test system: LOU-NH91
Procedure, shortened: as §1

EMC-BAC-2 = test system: EMC-BAC-2
Procedure, shortened: as §1

RERF-LC-KJ = test system: RERF-LC-KJ
Procedure, shortened: as §1

NCI-H1650 = test system: NCI-H1650
Procedure, shortened: as §1

COR-L 105 = test system: COR-L 105
Procedure, shortened: as §1

NCI-H1734 = test system: NCI-H1734
Procedure, shortened: as §1

LCLC-97TM1 = test system: LCLC-97TM1
Procedure, shortened: as §1

SK-MES-1 = test system: SK-MES-1
Procedure, shortened: as §1

NCI-H2126 = test system: NCI-H2126
Procedure, shortened: as §1

## O=C(O)CCCCC(CCSCc1ccccc1)SCc1ccccc1 (centres undefined) [CPI-613] + O=C(CCCCCCC(=O)Nc1ccccc1)NO [Vorinostat] (partner 1 µM)
BEN; first compound 5 µM
  relative viability: 0.491
BEN; first compound 15.81 µM
  relative viability: 0.529
BEN; first compound 50 µM
  relative viability: 0.558
BEN; first compound 158.11 µM
  relative viability: 0.593
BEN; first compound 500 µM
  relative viability: 0.607
LK-2; first compound 5 µM
  relative viability: 0.333
LK-2; first compound 15.81 µM
  relative viability: 0.278
LK-2; first compound 50 µM
  relative viability: 0.344
LK-2; first compound 158.11 µM
  relative viability: 0.553
LK-2; first compound 500 µM
  relative viability: 0.28
SW 1573; first compound 5 µM
  relative viability: 0.749
SW 1573; first compound 15.81 µM
  relative viability: 0.635
SW 1573; first compound 50 µM
  relative viability: 0.456
SW 1573; first compound 158.11 µM
  relative viability: 0.165
SW 1573; first compound 500 µM
  relative viability: 0.0536
ChaGo-K-1; first compound 5 µM
  relative viability: 0.737
ChaGo-K-1; first compound 15.81 µM
  relative viability: 0.685
ChaGo-K-1; first compound 50 µM
  relative viability: 0.744
ChaGo-K-1; first compound 158.11 µM
  relative viability: 0.518
ChaGo-K-1; first compound 500 µM
  relative viability: 0.301
HCC-78; first compound 15.81 µM
  relative viability: 0.373
HCC-78; first compound 50 µM
  relative viability: 0.361
HCC-78; first compound 158.11 µM
  relative viability: 0.393
HCC-78; first compound 500 µM
  relative viability: 0.479
EKVX; first compound 5 µM
  relative viability: 0.695
EKVX; first compound 15.81 µM
  relative viability: 0.668
EKVX; first compound 50 µM
  relative viability: 0.637
EKVX; first compound 158.11 µM
  relative viability: 0.258
EKVX; first compound 500 µM
  relative viability: 0.429
NCI-H2087; first compound 5 µM
  relative viability: 0.817
NCI-H2087; first compound 15.81 µM
  relative viability: 0.725
NCI-H2087; first compound 50 µM
  relative viability: 0.689
NCI-H2087; first compound 158.11 µM
  relative viability: 0.374
NCI-H2087; first compound 500 µM
  relative viability: 0.0093
HCC-827; first compound 5 µM
  relative viability: 0.769
HCC-827; first compound 15.81 µM
  relative viability: 0.703
HCC-827; first compound 50 µM
  relative viability: 0.773
HCC-827; first compound 158.11 µM
  relative viability: 0.497
HCC-827; first compound 500 µM
  relative viability: 0.656
EPLC-272H; first compound 5 µM
  relative viability: 0.509
EPLC-272H; first compound 15.81 µM
  relative viability: 0.406
EPLC-272H; first compound 50 µM
  relative viability: 0.268
EPLC-272H; first compound 158.11 µM
  relative viability: 0.0975
EPLC-272H; first compound 500 µM
  relative viability: 0.0196
NCI-H358; first compound 5 µM
  relative viability: 0.683
NCI-H358; first compound 15.81 µM
  relative viability: 0.561
NCI-H358; first compound 50 µM
  relative viability: 0.62
NCI-H358; first compound 158.11 µM
  relative viability: 0.0809
NCI-H358; first compound 500 µM
  relative viability: 0.0166
LU99A; first compound 5 µM
  relative viability: 0.474
LU99A; first compound 15.81 µM
  relative viability: 0.408
LU99A; first compound 50 µM
  relative viability: 0.466
LU99A; first compound 158.11 µM
  relative viability: 0.394
LU99A; first compound 500 µM
  relative viability: 0.223
NCI-H727; first compound 5 µM
  relative viability: 1.1
NCI-H727; first compound 15.81 µM
  relative viability: 1.07
NCI-H727; first compound 50 µM
  relative viability: 1.04
NCI-H727; first compound 158.11 µM
  relative viability: 1.01
NCI-H727; first compound 500 µM
  relative viability: 0.642
NCI-H1944; first compound 5 µM
  relative viability: 0.572
NCI-H1944; first compound 15.81 µM
  relative viability: 0.574
NCI-H1944; first compound 50 µM
  relative viability: 0.496
NCI-H1944; first compound 158.11 µM
  relative viability: 0.322
NCI-H1944; first compound 500 µM
  relative viability: 0.273
LOU-NH91; first compound 5 µM
  relative viability: 0.891
LOU-NH91; first compound 15.81 µM
  relative viability: 0.844
LOU-NH91; first compound 50 µM
  relative viability: 0.871
LOU-NH91; first compound 158.11 µM
  relative viability: 0.837
LOU-NH91; first compound 500 µM
  relative viability: 0.622
EMC-BAC-2; first compound 5 µM
  relative viability: 0.499
EMC-BAC-2; first compound 15.81 µM
  relative viability: 0.339
EMC-BAC-2; first compound 50 µM
  relative viability: 0.469
EMC-BAC-2; first compound 158.11 µM
  relative viability: 0.356
EMC-BAC-2; first compound 500 µM
  relative viability: 0.0895
RERF-LC-KJ; first compound 5 µM
  relative viability: 0.607
RERF-LC-KJ; first compound 15.81 µM
  relative viability: 0.53
RERF-LC-KJ; first compound 50 µM
  relative viability: 0.631
RERF-LC-KJ; first compound 158.11 µM
  relative viability: 0.415
RERF-LC-KJ; first compound 500 µM
  relative viability: 0.344
NCI-H1650; first compound 5 µM
  relative viability: 0.521
NCI-H1650; first compound 15.81 µM
  relative viability: 0.469
NCI-H1650; first compound 50 µM
  relative viability: 0.507
NCI-H1650; first compound 158.11 µM
  relative viability: 0.142
NCI-H1650; first compound 500 µM
  relative viability: 0.0205
COR-L 105; first compound 5 µM
  relative viability: 0.765
COR-L 105; first compound 15.81 µM
  relative viability: 0.675
COR-L 105; first compound 50 µM
  relative viability: 1.04
COR-L 105; first compound 158.11 µM
  relative viability: 0.375
COR-L 105; first compound 500 µM
  relative viability: 0.261
NCI-H1734; first compound 5 µM
  relative viability: 0.66
NCI-H1734; first compound 15.81 µM
  relative viability: 0.768
NCI-H1734; first compound 50 µM
  relative viability: 0.704
NCI-H1734; first compound 158.11 µM
  relative viability: 0.147
NCI-H1734; first compound 500 µM
  relative viability: 0.107
LCLC-97TM1; first compound 5 µM
  relative viability: 0.479
LCLC-97TM1; first compound 15.81 µM
  relative viability: 0.492
LCLC-97TM1; first compound 50 µM
  relative viability: 0.769
LCLC-97TM1; first compound 158.11 µM
  relative viability: 0.331
LCLC-97TM1; first compound 500 µM
  relative viability: 0.0868
SK-MES-1; first compound 5 µM
  relative viability: 1.09
SK-MES-1; first compound 15.81 µM
  relative viability: 0.921
SK-MES-1; first compound 50 µM
  relative viability: 1.01
SK-MES-1; first compound 158.11 µM
  relative viability: 0.169
SK-MES-1; first compound 500 µM
  relative viability: 0.0799
NCI-H2126; first compound 5 µM
  relative viability: 0.743
NCI-H2126; first compound 15.81 µM
  relative viability: 0.68
NCI-H2126; first compound 50 µM
  relative viability: 0.831
NCI-H2126; first compound 158.11 µM
  relative viability: 0.342
NCI-H2126; first compound 500 µM
  relative viability: 0.179
